Test results: US20220298141A1, “ENZYME INHIBITORS” (KALVISTA PHARMACEUTICALS LIMITED, priority 2019, published 2022)

Key:
[1] = molecular target: T1, Human FXIa (Homo sapiens, UniProt P03951); test: Determination of FXIa inhibitory activity in vitro (fluorogenic substrate Z-Gly-Pro-Arg-AFC); assay type: biochemical; conditions: Selectivity, Human FXIa (Enzyme Research Laboratories), 25° C.
T1 construct: purchased Enzyme Research Laboratories

[2] = molecular target: T2, Human Factor XIIa (Homo sapiens, UniProt P00748); test: Determination of Factor XIIa inhibitory activity in vitro (fluorogenic substrate H-DPro-Phe-Arg-AFC); assay type: biochemical; conditions: Human Factor XIIa (Enzyme Research Laboratories), 25° C., read-out: Human FXIIa IC50
T2 construct: purchased Enzyme Research Laboratories
T2 sequence (P00748 373-615 limits assumed): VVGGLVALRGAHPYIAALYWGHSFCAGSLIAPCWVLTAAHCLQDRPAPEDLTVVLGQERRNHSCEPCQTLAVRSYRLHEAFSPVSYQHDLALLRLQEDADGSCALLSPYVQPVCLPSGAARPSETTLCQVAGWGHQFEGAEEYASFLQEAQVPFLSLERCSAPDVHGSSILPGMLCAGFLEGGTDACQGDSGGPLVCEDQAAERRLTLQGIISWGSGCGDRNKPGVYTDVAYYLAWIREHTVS
T2 sequence (P00748 20-372 partner limits assumed): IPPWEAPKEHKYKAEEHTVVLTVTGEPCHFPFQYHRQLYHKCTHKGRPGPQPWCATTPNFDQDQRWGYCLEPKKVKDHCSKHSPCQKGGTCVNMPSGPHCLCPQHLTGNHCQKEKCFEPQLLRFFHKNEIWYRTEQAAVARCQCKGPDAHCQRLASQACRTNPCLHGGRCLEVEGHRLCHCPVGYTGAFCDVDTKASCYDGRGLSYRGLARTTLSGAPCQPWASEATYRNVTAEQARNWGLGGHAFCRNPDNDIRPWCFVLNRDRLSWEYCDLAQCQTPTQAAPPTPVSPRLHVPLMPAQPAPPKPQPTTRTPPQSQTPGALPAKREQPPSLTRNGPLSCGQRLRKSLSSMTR
Outline: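 In vitro inhibition of human Factor XIIa (sourced from Enzyme Research Laboratories) was measured by incubating the enzyme at 25° C. with the fluorogenic substrate H-DPro-Phe-Arg-AFC across a range of test compound concentrations. The initial reaction rate, taken as residual enzyme activity, was followed by the […], and IC50 values were calculated.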

T1 sequence (P03951 388-625 limits assumed): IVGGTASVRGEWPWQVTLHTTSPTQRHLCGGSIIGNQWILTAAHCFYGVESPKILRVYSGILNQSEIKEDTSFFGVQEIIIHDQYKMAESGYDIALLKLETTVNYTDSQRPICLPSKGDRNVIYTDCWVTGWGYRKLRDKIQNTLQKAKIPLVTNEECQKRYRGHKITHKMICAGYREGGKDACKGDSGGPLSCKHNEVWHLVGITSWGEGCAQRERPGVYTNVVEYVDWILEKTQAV
T1 sequence (P03951 19-387 partner limits assumed): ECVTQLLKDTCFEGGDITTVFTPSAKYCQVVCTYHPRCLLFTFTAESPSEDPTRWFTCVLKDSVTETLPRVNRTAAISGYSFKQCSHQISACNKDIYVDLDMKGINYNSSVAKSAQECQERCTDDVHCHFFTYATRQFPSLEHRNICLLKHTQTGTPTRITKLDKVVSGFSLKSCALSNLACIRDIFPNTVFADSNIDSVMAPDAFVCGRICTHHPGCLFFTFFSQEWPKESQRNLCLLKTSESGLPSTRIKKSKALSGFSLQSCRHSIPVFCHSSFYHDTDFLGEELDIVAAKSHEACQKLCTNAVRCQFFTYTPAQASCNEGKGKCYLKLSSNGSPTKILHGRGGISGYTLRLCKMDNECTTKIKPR

IC50 [1]	IC50 [2]	SMILES
> 40 µM	10 to 40 µM	Nc1nccc2cc(CNC(=O)c3cc(Cl)cnc3Nc3ccc(N4CCOCC4)cc3)ccc12 [Example 1.44]
> 40 µM	10 to 40 µM	Nc1nccc2cc(CNC(=O)c3cc(Cl)cnc3NCC(=O)N3CCOCC3)ccc12 [Example 1.45]
> 40 µM	10 to 40 µM	Nc1nccc2cc(CNC(=O)c3cc(Cl)cnc3NCC(=O)NC3CCCC3)ccc12 [Example 1.46]
> 40 µM	1 to 3 µM	CN1C(C)(C)CC(Nc2ncc(Cl)cc2C(=O)NCc2ccc3c(N)nccc3c2)CC1(C)C [Example 1.47]
> 40 µM	1 to 3 µM	CN1CCN(c2cc(CNc3ncc(Cl)cc3C(=O)NCc3ccc4c(N)nccc4c3)ccn2)CC1 [Example 1.48]
> 40 µM	0.3 to 1 µM	CC(C)N1CCC(CNc2ncc(Cl)cc2C(=O)NCc2ccc3c(N)nccc3c2)CC1 [Example 1.49]
> 40 µM	0.3 to 1 µM	Nc1nccc2cc(CNC(=O)c3cc(Cl)cnc3NCC3CCN(C4CC4)CC3)ccc12 [Example 1.50, N-((1-aminoisoquinolin-6-yl)methyl)-5-chloro-2-(((1-cyclopropylpiperidin-4-yl)methyl)amino)nicotinamide]
> 40 µM	< 0.3 µM	CCN1CCC(CNc2ncc(Cl)cc2C(=O)NCc2ccc3c(N)nccc3c2)CC1 [Example 1.51, N-((1-aminoisoquinolin-6-yl)methyl)-5-chloro-2-(((1-ethylpiperidin-4-yl)methyl)amino)nicotinamide]
> 40 µM	0.3 to 1 µM	Nc1nccc2cc(CNC(=O)c3cc(Cl)cnc3NCC3CCN(C4CCCC4)CC3)ccc12 [Example 1.53]
> 40 µM	0.3 to 1 µM	COCCN1CCC(CNc2ncc(Cl)cc2C(=O)NCc2ccc3c(N)nccc3c2)CC1 [Example 1.54, N-((1-aminoisoquinolin-6-yl)methyl)-5-chloro-2-(((1-(2-methoxyethyl)piperidin-4-yl)methyl)amino)nicotinamide]
> 40 µM	0.3 to 1 µM	CC(C)CN1CCC(CNc2ncc(Cl)cc2C(=O)NCc2ccc3c(N)nccc3c2)CC1 [Example 1.55]
> 40 µM	0.3 to 1 µM	Nc1nccc2cc(CNC(=O)c3cc(Cl)cnc3NCC3CCN(CC4CC4)CC3)ccc12 [Example 1.56]
> 40 µM	3 to 10 µM	Nc1nccc2cc(CNC(=O)c3cc(Cl)cnc3NCC3CCN(CC(F)(F)F)CC3)ccc12 [Example 1.57]
> 40 µM	1 to 3 µM	Nc1nccc2cc(CNC(=O)c3cc(Cl)cnc3NCC3CCN(C4CCOCC4)CC3)ccc12 [Example 1.58]
> 40 µM	0.3 to 1 µM	Nc1nccc2cc(CNC(=O)c3cc(Cl)cnc3NCC3CCn4ccnc4C3)ccc12 (stereo not drawn) [Example 1.59, N-((1-aminoisoquinolin-6-yl)methyl)-5-chloro-2-(((5,6,7,8-tetrahydroimidazo[1,2-a]pyridin-7-yl)methyl)amino)nicotinamide]
> 40 µM	1 to 3 µM	CN1CCC(Nc2ncc(Cl)cc2C(=O)NCc2ccc3c(N)nccc3c2)CC1 [Example 1.60]
> 40 µM	3 to 10 µM	CC(=O)N1CCC(CNc2ncc(Cl)cc2C(=O)NCc2ccc3c(N)nccc3c2)CC1 [Example 1.61]
> 40 µM	3 to 10 µM	CS(=O)(=O)N1CCC(CNc2ncc(Cl)cc2C(=O)NCc2ccc3c(N)nccc3c2)CC1 [Example 1.62]
> 40 µM	0.3 to 1 µM	Nc1nccc2cc(CNC(=O)c3cc(Cl)cnc3NCC3CCN(Cc4cccnc4)CC3)ccc12 [Example 1.63, N-[(1-amino-6-isoquinolyl)methyl]-5-chloro-2-[[1-(3-pyridylmethyl)-4-piperidyl]methylamino]pyridine-3-carboxamide]
> 40 µM	0.3 to 1 µM	CC(C)N1CCCC(CNc2ncc(Cl)cc2C(=O)NCc2ccc3c(N)nccc3c2)C1 (stereo not drawn) [Example 1.64, N-[(1-amino-6-isoquinolyl)methyl]5-chloro-2-[(1-isopropyl-3-piperidyl)methylamino]pyridine-3-carboxamide]
> 40 µM	3 to 10 µM	Nc1nccc2cc(CNC(=O)c3cc(Cl)cnc3NCC3CCN(Cc4cscn4)CC3)ccc12 [Example 1.65]
> 40 µM	3 to 10 µM	Nc1nccc2cc(CNC(=O)c3cc(Cl)cnc3NCC3CCN(Cc4nccs4)CC3)ccc12 [Example 1.66]
> 40 µM	1 to 3 µM	Cn1nccc1CN1CCC(CNc2ncc(Cl)cc2C(=O)NCc2ccc3c(N)nccc3c2)CC1 [Example 1.67]
> 40 µM	0.3 to 1 µM	Cn1cc(CN2CCC(CNc3ncc(Cl)cc3C(=O)NCc3ccc4c(N)nccc4c3)CC2)cn1 [Example 1.68]

IC50 [1]	IC50 [2]	SMILES
> 40 µM	3 to 10 µM	CC(C)N1CCCC(C(=O)Nc2ncc(Cl)cc2C(=O)NCc2ccc3c(N)nccc3c2)C1 (stereo not drawn) [Example 1.69]
> 40 µM	10 to 40 µM	Nc1nccc2cc(CNC(=O)c3cc(Cl)cnc3NC[C@@H]3CCC(=O)N3)ccc12 [Example 1.70]
> 40 µM	0.3 to 1 µM	CC(Nc1ncc(Cl)cc1C(=O)NCc1ccc2c(N)nccc2c1)C1CCN(C)CC1 (stereo not drawn) [Example 1.71]
3.16 µM	10 to 40 µM	Nc1nccc2cc(CNC(=O)c3cc(Cl)cnc3NC[C@H]3CCC(=O)N3)ccc12 [Example 1.72, R—N-[(1-aminoisoquinoline-6-yl)methyl)-5-chloro-2-(((5-oxopyrrolidin-2-yl)methyl)amino)nicotinamide]
> 40 µM	1 to 3 µM	CN1CCC(CNc2ncccc2C(=O)NCc2ccc3c(N)nccc3c2)CC1 [Example 4.01, N-((1-aminoisoquinolin-6-yl)methyl)-2-(((1-methylpiperidin-4-yl)methyl)amino)nicotinamide]
> 40 µM	0.3 to 1 µM	Cc1cnc(NCC2CCN(C)CC2)c(C(=O)NCc2ccc3c(N)nccc3c2)c1 [Example 4.02]
> 40 µM	0.3 to 1 µM	CN1CCC(CNc2nccnc2C(=O)NCc2ccc3c(N)nccc3c2)CC1 [Example 4.03, N-((1-aminoisoquinolin-6-yl)methyl)-3-(((1-methylpiperidin-4-yl)methyl)amino)pyrazine-2-carboxamide]
> 40 µM	1 to 3 µM	CN1CCC(CNc2cncc(C(=O)NCc3ccc4c(N)nccc4c3)n2)CC1 [Example 4.04]
> 40 µM	3 to 10 µM	CN1CCC(CNc2cnc(C(=O)NCc3ccc4c(N)nccc4c3)cn2)CC1 [Example 4.05]
> 40 µM	1 to 3 µM	COc1ccc(C(=O)NCc2ccc3c(N)nccc3c2)c(NCC2CCN(C)CC2)n1 [Example 4.06]
23.6 µM	0.3 to 1 µM	CN1CCC(CNc2nc(Cl)ccc2C(=O)NCc2ccc3c(N)nccc3c2)CC1 [Example 4.07]
> 40 µM	10 to 40 µM	CN1CCC(CNc2nccc(Cl)c2C(=O)NCc2ccc3c(N)nccc3c2)CC1 [Example 4.08]
> 40 µM	< 0.3 µM	CN1CCC(CNc2ncc(Br)cc2C(=O)NCc2ccc3c(N)nccc3c2)CC1 [Example 4.09]
> 40 µM	0.3 to 1 µM	CN1CCC(CNc2ncc(C3CC3)cc2C(=O)NCc2ccc3c(N)nccc3c2)CC1 [Example 4.10]
> 40 µM	0.3 to 1 µM	CN1CCC(CNc2ncc(-c3cccnc3)cc2C(=O)NCc2ccc3c(N)nccc3c2)CC1 [Example 4.11, N-((1-aminoisoquinolin-6-yl)methyl)-6-(((1-methylpiperidin-4-yl)methyl)amino)-[3,3′-bipyridine]-5-carboxamide]
> 40 µM	1 to 3 µM	COc1cnc(NCC2CCN(C)CC2)c(C(=O)NCc2ccc3c(N)nccc3c2)c1 [Example 4.12]
> 40 µM	0.3 to 1 µM	Cc1ccc(C(=O)NCc2ccc3c(N)nccc3c2)c(NCC2CCN(C)CC2)n1 [Example 4.13]
> 40 µM	10 to 40 µM	Cc1ccnc(NCC2CCN(C)CC2)c1C(=O)NCc1ccc2c(N)nccc2c1 [Example 4.14]
> 40 µM	1 to 3 µM	CN1CCC(CNc2nc(-c3ccccc3)ccc2C(=O)NCc2ccc3c(N)nccc3c2)CC1 [Example 4.15]
> 40 µM	0.3 to 1 µM	CN1CCC(CNc2nc(-c3cccnc3)ccc2C(=O)NCc2ccc3c(N)nccc3c2)CC1 [Example 4.16]
> 40 µM	1 to 3 µM	CN1CCC(CNc2nc(C3CC3)ccc2C(=O)NCc2ccc3c(N)nccc3c2)CC1 [Example 4.17]
23.3 µM	0.3 to 1 µM	CN1CCC(CNc2ncc(-c3ccccc3)nc2C(=O)NCc2ccc3c(N)nccc3c2)CC1 [Example 4.18]
> 40 µM	< 0.3 µM	CN1CCC(CNc2nc(Cl)c(Cl)cc2C(=O)NCc2ccc3c(N)nccc3c2)CC1 [Example 4.19]

SMILES	IC50 [1]	IC50 [2]
Nc1nccc2cc(CNC(=O)c3cc(Cl)cnc3NCC34CCN(CC3)CC4)ccc12 [Example 1.52]	> 40 µM	0.3 to 1 µM
